Measured values from ChEMBL document CHEMBL6153026, “Small-Molecule Modulators Targeting Coactivator-Associated Arginine Methyltransferase 1 (CARM1) as Therapeutic Agents for Cancer Treatment: Current Medicinal Chemistry Insights and Emerging Opportunities” (J Med Chem, 2025).
One block for each compound: values may come before it.

How the values were obtained:
[1] = biological target: T1, Histone-arginine methyltransferase CARM1 (Homo sapiens, UniProt Q86X55); experiment: Inhibition of CARM1 (unknown origin)
T1 sequence (Q86X55 whole entry): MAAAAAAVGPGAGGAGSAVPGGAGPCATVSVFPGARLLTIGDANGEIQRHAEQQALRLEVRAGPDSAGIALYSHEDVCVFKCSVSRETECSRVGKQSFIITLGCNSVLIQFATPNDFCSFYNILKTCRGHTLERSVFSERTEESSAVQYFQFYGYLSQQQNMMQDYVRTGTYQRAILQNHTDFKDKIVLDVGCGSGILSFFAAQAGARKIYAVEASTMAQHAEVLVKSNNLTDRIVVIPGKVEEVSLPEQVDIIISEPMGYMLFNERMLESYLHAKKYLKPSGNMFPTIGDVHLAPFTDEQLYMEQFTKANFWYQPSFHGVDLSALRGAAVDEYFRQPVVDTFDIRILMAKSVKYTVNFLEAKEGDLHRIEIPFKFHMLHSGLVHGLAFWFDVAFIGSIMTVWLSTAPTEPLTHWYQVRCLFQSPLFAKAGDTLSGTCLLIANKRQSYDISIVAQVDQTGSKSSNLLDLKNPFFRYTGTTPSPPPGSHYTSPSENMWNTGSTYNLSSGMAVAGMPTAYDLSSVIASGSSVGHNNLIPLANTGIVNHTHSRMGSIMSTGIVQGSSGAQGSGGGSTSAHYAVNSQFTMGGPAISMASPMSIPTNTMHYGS

[2] = Lipophilicity, logP of compound; format: physicochemical; conditions: octanol/water
[3] = biological target: Protein arginine N-methyltransferase 6 (Homo sapiens, UniProt Q96LA8); experiment: Inhibition of PRMT6 (unknown origin) by scintillation proximity assay
Chain of Protein arginine N-methyltransferase 6 (Q96LA8 whole entry): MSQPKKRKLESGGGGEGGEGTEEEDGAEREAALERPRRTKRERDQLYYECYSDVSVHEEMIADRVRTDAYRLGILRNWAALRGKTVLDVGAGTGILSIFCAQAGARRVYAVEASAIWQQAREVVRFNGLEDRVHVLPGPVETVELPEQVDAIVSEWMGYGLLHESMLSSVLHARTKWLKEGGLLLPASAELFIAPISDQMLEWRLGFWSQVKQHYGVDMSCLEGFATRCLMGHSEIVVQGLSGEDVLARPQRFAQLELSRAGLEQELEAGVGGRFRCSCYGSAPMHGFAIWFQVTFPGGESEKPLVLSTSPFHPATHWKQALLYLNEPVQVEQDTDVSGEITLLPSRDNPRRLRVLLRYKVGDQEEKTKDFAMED

[4] = biological target: Protein arginine N-methyltransferase 5 (Homo sapiens, UniProt O14744); experiment: Inhibition of PRMT5 (unknown origin)
Chain of Protein arginine N-methyltransferase 5 (O14744 whole entry, the tested form may be a part): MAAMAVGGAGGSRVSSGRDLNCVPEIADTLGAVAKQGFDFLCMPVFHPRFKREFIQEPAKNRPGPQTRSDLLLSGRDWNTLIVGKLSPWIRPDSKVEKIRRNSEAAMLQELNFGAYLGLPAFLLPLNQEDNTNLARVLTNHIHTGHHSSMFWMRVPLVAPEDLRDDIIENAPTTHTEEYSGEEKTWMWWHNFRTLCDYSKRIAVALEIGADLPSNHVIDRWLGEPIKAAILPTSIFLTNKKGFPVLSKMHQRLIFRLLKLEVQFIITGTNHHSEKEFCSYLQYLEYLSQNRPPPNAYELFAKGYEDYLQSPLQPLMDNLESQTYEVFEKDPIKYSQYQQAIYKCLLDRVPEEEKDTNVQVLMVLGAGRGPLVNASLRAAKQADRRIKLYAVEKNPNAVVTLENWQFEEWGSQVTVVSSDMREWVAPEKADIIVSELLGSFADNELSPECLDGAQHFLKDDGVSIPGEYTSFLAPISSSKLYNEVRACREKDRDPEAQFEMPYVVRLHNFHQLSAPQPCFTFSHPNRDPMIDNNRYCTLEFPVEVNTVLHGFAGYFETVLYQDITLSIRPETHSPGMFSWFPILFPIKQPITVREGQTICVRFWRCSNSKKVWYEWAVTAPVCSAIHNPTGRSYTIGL

[5] = biological target: T1, Histone-arginine methyltransferase CARM1; experiment: Inhibition of human N-terminal 6xHis-tagged CARM1 catalytic domain (140 to 480 residues) using histone H3 as substrate and SAM as cofactor by radiometric HotSpot assay
MV4-11 = experiment: Antiproliferative activity against human MV4-11 cells assessed as reduction in cell viability; format: functional, cell-based
ASPC1 = experiment: Antitumor activity in human ASPC1 cells xenografted in BALB/c nude mouse assessed as tumor growth inhibition at 100 mg/kg, relative to control; format: functional; design: scale not given: the % may be the effect or the level left
DU-145 = experiment: Antiproliferative activity against human DU-145 cells assessed as reduction in cell viability incubated for 72 hrs by MTT assay; format: functional, cell-based; conditions: DU-145, 72 h
[6] = biological target: T1, Histone-arginine methyltransferase CARM1; experiment: Inhibition of PRMT4 (unknown origin)
[7] = biological target: Protein arginine N-methyltransferase 3 (Homo sapiens, UniProt O60678); experiment: Inhibition of PRMT3 (unknown origin)
Chain of Protein arginine N-methyltransferase 3 (O60678 whole entry, the tested form may be a part): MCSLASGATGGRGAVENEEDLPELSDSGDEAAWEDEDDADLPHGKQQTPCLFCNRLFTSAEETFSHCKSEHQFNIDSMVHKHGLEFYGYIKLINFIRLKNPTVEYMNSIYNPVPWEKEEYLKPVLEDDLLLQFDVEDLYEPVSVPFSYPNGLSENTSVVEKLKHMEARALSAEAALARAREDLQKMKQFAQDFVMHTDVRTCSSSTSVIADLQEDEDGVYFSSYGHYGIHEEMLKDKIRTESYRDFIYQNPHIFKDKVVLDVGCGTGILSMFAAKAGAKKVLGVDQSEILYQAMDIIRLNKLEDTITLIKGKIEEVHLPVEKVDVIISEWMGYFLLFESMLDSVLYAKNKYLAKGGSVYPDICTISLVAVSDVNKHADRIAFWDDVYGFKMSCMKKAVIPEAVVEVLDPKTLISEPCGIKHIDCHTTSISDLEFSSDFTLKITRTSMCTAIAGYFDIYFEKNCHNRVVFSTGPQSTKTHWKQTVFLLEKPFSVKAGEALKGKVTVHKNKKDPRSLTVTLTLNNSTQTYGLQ

[8] = biological target: T1, Histone-arginine methyltransferase CARM1; experiment: Inhibition of C-terminal His-tagged human CARM1 catalytic domain (135 to 479 residues) extracted from Escherichia coli BL21 CodonPlus (DE3)-RIL cells using (H3(3-31)) as substrate by enzymatic assay
[9] = biological target: T1, Histone-arginine methyltransferase CARM1; experiment: Inhibition of GST-tagged CARM1 (unknown origin) extracted form Escherichia coli BL21 (DE3) by MTase-Glo reagent based luminometer analysis
MCF7 = experiment: Cytotoxicity against human MCF7 cells assessed as reduction in cell viability by MTS assay; format: functional, cell-based
Homo sapiens = species on record: Homo sapiens; experiment: Selectivity ratio of IC50 for human PRMT6 to IC50 for human PRMT4

IC50 [1]: 780 nM
logP [2]: 4.48
SMILES: CCOC(=O)c1cc(C(=O)NCc2ccccc2CCC(F)(F)F)n(-c2cccc(NC(=O)[C@H](C)N)c2)c1

IC50 [3]: 300 nM
SMILES: NCCN1CCC(Cc2ccccc2)CC1

IC50 [4]: 0.42 nM
SMILES: NC(=O)[C@@H](N)CCCNCNCCCSC[C@H]1O[C@H](n2cnc3c(N)ncnc32)[C@H](O)[C@@H]1O

IC50 [1]: < 1 nM
SMILES: N=C(NCCCN(CCNC(=O)NCc1ccccc1)C[C@H]1O[C@@H](n2cnc3c(N)ncnc32)[C@H](O)[C@@H]1O)Nc1cccc(Br)c1

IC50 [5]: 43 nM
SMILES: COC1CCC(CCNC(=O)[C@H](CC[C@H](CNCc2ccccc2)C[C@H]2O[C@@H](n3cnc4c(N)ncnc43)[C@H](O)[C@@H]2O)NC(=O)CC(C)(C)C2=C(C)C(=O)C(C)=C(C)C2=O)CC1 (stereo partly drawn)

IC50 (MV4-11): 4550 nM
SMILES: CNCCN(C)Cc1ccccc1OCc1cccc(Cl)c1Cl

SMILES: C[S+](CC[C@H](N)C(=O)[O-])C[C@H]1O[C@@H](n2cnc3c(N)ncnc32)[C@H](O)[C@@H]1O (stereo partly drawn) [ADEMETIONINE]
IC50 [1]: 2.8 nM

SMILES: CNC[C@@H](O)COc1ccc(Cl)c(-c2nc(-c3c(C)noc3C)c(C)c(N3CC4(CCN(C(=O)OC)CC4)C3)n2)c1
Activity (ASPC1): 52%

IC50 (DU-145): < 1000 nM
SMILES: CNCCNCc1cccc(-c2nc(Nc3cccc(OCCCCCCC(=O)NO)c3)c(C)c(-c3ccnc4[nH]ccc34)n2)c1

IC50 [1]: 500 nM
IC50 [6]: 60 nM
SMILES: C[C@H](N)C(=O)Nc1ccc2[nH]nc(-c3cccc(S(=O)(=O)N(C)C)c3)c2c1

IC50 [7]: < 5 nM
SMILES: Nc1ncnc2c1ncn2[C@@H]1O[C@H](CSCC[C@H](N)C(=O)O)[C@@H](O)[C@H]1O [S-ADENOSYLHOMOCYSTEINE]

IC50 [8]: 1140 nM
SMILES: NCCCN(CCCNc1ccccn1)C[C@@H]1O[C@H](n2cnc3c(N)ncnc32)[C@@H](O)[C@H]1O

IC50 [1]: 7230 nM
logP [2]: 3.8
SMILES: C[C@H](N)C(=O)NCc1cccc(-n2cc(C(F)(F)F)cc2C(=O)NCc2ccccc2)c1

IC50 [9]: 42200 nM
SMILES: CNCC(=O)N1CCOc2c(O)cc(-c3cccc(Cl)c3)cc2C1
IC50 (MCF7): 8260 nM

IC50 [8]: 1110 nM
SMILES: Nc1ncnc2c1ncn2[C@H]1O[C@@H](CN(CCCNc2ccccn2)CC[C@H](N)C(=O)O)[C@H](O)[C@@H]1O

IC50 [1]: 42400 nM
SMILES: OCCNCCNCc1ccccc1OCc1ccc(Cl)cc1Cl

Ratio IC50 (Homo sapiens): 197
SMILES: C[C@H](N)C(=O)Nc1ccc2[nH]cc(-c3cccc(S(C)(=O)=O)c3)c2c1

IC50 [1]: < 2 nM
Ratio IC50 (Homo sapiens): > 500
SMILES: C[C@H](N)C(=O)Nc1ccc2c(c1)c(-c1cccc(S(=O)(=O)N(C)C)c1)cn2C
